Test results: patent US11292782B2, “Diarylhydantoin compounds and methods of use thereof” (Nuvation Bio Inc., priority 2018, dated 2022)

Assays:
Assay type in all cases: cell-based
Human AR [1] = target: T1, Human AR (Homo sapiens (Human), UniProt P10275); assay: AR agonist assay (GRE-LUC luciferase, transfected HEK-293 cells, test article alone); conditions: HEK-293 transfected with human AR, read-out: AR Agonist IC50
Experimental: (§1) Human AR cDNA cloned into pCMV vector, GRE-LUC, and CMV-renilla-LUC were used to transfect cells. HEK-293 cells (ATCC) were plated at 120,000 cells per well of a 24 well plate in DME+5% csFBS (Fisher Scientific, Waltham, Mass.). The cells were transfected using Lipofectamine (Life Technologies, Carlsbad, Calif.) with 0.25 μg GRE-LUC, 0.010 μg CMV-LUC (renilla luciferase) and 25 ng of the AR. […] Luciferase assay was performed 48 hrs after transfection. Firefly luciferase assay values were normalized to renilla luciferase values and were graphed using graphpad prism software (La Jolla, Calif.). […] The IC50 or EC50 values were determined using non-linear regression and […] logistics fitting.

Human AR [2] = target: T1, Human AR; assay: AR antagonist assay (GRE-LUC luciferase, transfected HEK-293 cells, with 0.1 nM R1881); conditions: with 0.1 nM R1881
Experimental: as §1

PSA gene expression = assay: AR activity assay: PSA gene expression (realtime PCR); conditions: 1 and 10 μM
Experimental: (§2) LNCaP (ATCC) or LNCaP-EnzR (MR49F was received from Dr. Martin Gleave, University of British Columbia) cells were plated in 96 well plates at 15,000-20,000 cells/well in RPMI+1% csFBS without phenol red. Cells were treated 2 days after plating and harvested 18 hours after treatment (for TMPRSS2) or 24 hours after treatment (for PSA and FKBP5). RNA was isolated (cells to ct kit, Life Technologies), cDNA synthesized (cells to ct kit), and expression of TMPRSS2, PSA or FKBP5 and expression of GAPDH were measured using realtime PCR primers and probes (TaqMan probes, Life Technologies) by realtime PCR (ABI 7900, Life Technologies). Relative expression was calculated using ddct method.

FKBP5 gene expression = assay: AR activity assay: FKBP5 gene expression (realtime PCR); conditions: 1 and 10 μM
Experimental: as §2

GFP-AR = GFP-AR (Homo sapiens (Human), UniProt P10275); conditions: COS cells, GFP-AR, 30 min pre-treatment, then R1881 for four hours
Sequence of GFP-AR (P10275 whole entry, looked up): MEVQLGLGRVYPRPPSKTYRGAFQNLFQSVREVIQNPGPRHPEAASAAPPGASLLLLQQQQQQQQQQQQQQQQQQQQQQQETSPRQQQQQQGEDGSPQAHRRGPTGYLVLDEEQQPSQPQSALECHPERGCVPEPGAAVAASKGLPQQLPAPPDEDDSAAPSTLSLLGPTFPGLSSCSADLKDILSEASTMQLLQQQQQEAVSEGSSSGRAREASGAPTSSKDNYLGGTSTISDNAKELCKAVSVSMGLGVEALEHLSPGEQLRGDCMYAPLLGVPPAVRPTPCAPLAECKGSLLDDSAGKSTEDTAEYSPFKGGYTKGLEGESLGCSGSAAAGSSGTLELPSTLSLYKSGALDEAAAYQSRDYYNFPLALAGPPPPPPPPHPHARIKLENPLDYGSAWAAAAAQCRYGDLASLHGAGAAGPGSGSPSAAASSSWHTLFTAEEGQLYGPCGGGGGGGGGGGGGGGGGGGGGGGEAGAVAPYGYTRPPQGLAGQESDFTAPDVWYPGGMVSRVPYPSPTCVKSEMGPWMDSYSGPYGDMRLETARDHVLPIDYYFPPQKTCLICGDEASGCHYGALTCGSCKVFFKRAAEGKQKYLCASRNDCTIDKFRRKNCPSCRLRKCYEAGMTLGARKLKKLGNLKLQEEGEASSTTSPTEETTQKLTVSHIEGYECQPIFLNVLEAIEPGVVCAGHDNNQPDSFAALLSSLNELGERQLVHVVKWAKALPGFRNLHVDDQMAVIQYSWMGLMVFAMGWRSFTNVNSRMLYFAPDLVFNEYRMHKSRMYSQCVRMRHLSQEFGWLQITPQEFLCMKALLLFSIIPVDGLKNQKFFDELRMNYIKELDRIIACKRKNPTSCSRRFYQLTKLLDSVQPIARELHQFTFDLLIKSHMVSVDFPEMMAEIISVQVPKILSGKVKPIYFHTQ
Experimental: COS cells plated in chamber slides in DME+5% csFBS without phenol red were transfected with […] GFP-AR using lipofectamine reagent.

GR = GR (Homo sapiens (Human), UniProt P04150); assay: GR antagonist assay (GRE-LUC luciferase, transfected COS-7 cells, with 0.1 nM dexamethasone); conditions: 10 μM, in the presence of 0.1 nM dexamethasone
Sequence of GR (P04150 whole entry): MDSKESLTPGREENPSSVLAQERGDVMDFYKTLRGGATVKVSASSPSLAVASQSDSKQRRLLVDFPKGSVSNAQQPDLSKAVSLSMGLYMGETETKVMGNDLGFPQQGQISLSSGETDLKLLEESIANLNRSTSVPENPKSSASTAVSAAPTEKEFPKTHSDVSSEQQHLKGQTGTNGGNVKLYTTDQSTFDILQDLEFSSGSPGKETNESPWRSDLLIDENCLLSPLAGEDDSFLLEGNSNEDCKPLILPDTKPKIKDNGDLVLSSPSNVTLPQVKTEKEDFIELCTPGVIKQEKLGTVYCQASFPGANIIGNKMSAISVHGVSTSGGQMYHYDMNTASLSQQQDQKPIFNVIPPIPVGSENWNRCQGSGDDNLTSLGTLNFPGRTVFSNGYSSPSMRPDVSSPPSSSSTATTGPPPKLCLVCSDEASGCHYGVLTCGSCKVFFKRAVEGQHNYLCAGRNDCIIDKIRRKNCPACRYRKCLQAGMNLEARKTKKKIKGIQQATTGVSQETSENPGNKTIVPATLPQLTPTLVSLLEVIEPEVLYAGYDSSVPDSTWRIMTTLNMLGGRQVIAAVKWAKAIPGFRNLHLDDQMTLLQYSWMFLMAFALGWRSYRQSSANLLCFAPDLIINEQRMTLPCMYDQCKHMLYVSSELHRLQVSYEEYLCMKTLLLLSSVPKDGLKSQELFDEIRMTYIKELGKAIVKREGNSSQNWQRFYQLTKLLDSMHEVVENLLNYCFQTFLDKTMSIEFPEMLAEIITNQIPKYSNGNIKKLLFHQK
Experimental: COS-7 cells (ATCC, Manassas, Va.) were plated in 24 well plates in DME+5% csFBS without phenol red at 70,000 cells/well. Once the cells attached to the plates (typically after overnight incubation after plating), they were transfected in OPTIMEM medium (Life Technologies) using lipofectamine reagent (Life Technologies) with 0.25 μg GRE-LUC, 25 ng pCR3.1 GR, and 10 ng CMV-renilla LUC per well. Twenty-four hours after transfection, the cells were fed with DME+5% csFBS without phenol red (Fisher Scientific, Waltham, Mass.) and treated with the test compounds (1 pM to 10 μM dose range) in the presence of 0.1 nM dexamethasone (Sigma, St. Louis, Mo.). Sixteen to twenty-four hours after treatment, a luciferase assay was performed using the Dual Luciferase assay kit (Promega, Madison, Wis.). Firefly luciferase values were normalized to Renilla luciferase numbers.

LNCaP cells = assay: Cell proliferation assay, LNCaP (CellTiter-Glo); conditions: 6 days
Experimental: (§3) LNCaP-abl (3,000 cells/well, received from Dr. Myles Brown, Dana Farber Cancer Institute), 22RV1 (1,000 cells/well), LNCaP (5,000 cells/well), or COS (3,000 cells/well) cells were plated in 96 well plates in 50 μl RPMI+10% FBS (Fisher Scientific, Waltham, Mass.). LNCaP, COS, and 22RV1 cells were obtained from ATCC. Cells were treated in RPMI+10% FBS with test articles, ranging from 1 nM to 10 μM. Three days later, viable cells (LNCaP-abl, 22RV1, and COS) were measured by CellTiter-Glo assay (Promega, Madison, Wis.). For LNCaP cells, medium containing test article was changed after 3 days of treatment, and after an additional 3 days of culture, viable cells were measured by CellTiter-Glo assay.
(§4) The LNCaP cell line is androgen responsive with AR and PSA expression. It contains a T877A mutation in the AR. The 22RV1 cell line is positive for AR and PSA with additional AR splice variants and is insensitive to androgen for cell proliferation. The LNCaP-abl cell line expresses both AR and GR but is insensitive to androgen for cell proliferation. COS-7 is used as an AR negative cell line in this experiment.

LNCaP-abl cells = assay: Cell proliferation assay, LNCaP-abl (CellTiter-Glo); conditions: 72 h, 3 days
Experimental: as §3, §4

22RV1 cells = assay: Cell proliferation assay, 22RV1 (CellTiter-Glo); conditions: 3 days
Experimental: as §3, §4

COS-7 cells = assay: Cell proliferation assay, COS-7 (CellTiter-Glo); conditions: 3 days
Experimental: as §3, §4

T1 sequence (P10275 whole entry): as the sequence (P10275 whole entry, looked up) above

Question: For `CC1(C)C(=O)N(c2ccc(C#N)c(C(F)(F)F)c2)C(=S)N1c1ccc(CNC(=O)c2ccccn2)c(F)c1` [Compound 8], which EC50 (Human AR [1]) is on record?
Answer: > 10000 nM

Question: And the IC50 (Human AR [2])?
Answer: 47.2 nM

Question: What about the PSA gene expression (PSA gene expression) of the same compound?
Answer: significant inhibition

Question: And the FKBP5 gene expression (FKBP5 gene expression)?
Answer: significant inhibition

Question: And the “AR localization (cytoplasmic or nuclear)” value (GFP-AR)?
Answer: nuclear

Question: What about the “GR antagonist assay, % of vehicle” value (GR) of the same compound?
Answer: 52%

Question: And the “cell proliferation, % of vehicle at 3 μM” value (LNCaP cells; 3 μM)?
Answer: 63%

Question: And the “cell proliferation, % of vehicle at 10 μM” value (LNCaP cells; 10 μM)?
Answer: 19%

Question: And the activity at 3 µM (LNCaP-abl cells; 3 μM, read-out: cell proliferation, % of vehicle at 3 μM)?
Answer: 83%

Question: What about the activity at 10 µM (LNCaP-abl cells; 10 μM, read-out: cell proliferation, % of vehicle at 10 μM) of the same compound?
Answer: 62%

Question: And the “cell proliferation, % of vehicle at 3 μM” value (22RV1 cells; 22RV1, 3 μM)?
Answer: 87%

Question: And the “cell proliferation, % of vehicle at 10 μM” value (22RV1 cells; 22RV1, 10 μM)?
Answer: 90%

Question: And the “cell proliferation, % of vehicle at 3 μM” value (COS-7 cells; COS-7, 3 μM)?
Answer: 99%

Question: And the “cell proliferation, % of vehicle at 10 μM” value (COS-7 cells; COS-7, 10 μM)?
Answer: 91%
